Laboratory results as given in PubChem BioAssay (NCI).
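Exposure lasted 48 hours, with cells grown in 96-well plates and compounds tested at five concentrations. At the GI50, growth is halved. Definition used: TGI = concentration required for complete inhibition of growth.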

Legend:
Test in all cases: NCI tumour cell line growth inhibition, 48 h
[1] = system: SK-MEL-5 melanoma
[2] = system: MDA-MB-231 breast
[3] = system: OVCAR-8 ovarian
[4] = system: M14 melanoma
[5] = system: BT-549 breast
[6] = system: MDA-MB-435
[7] = system: SNB-19 CNS
[8] = system: LOX IMVI melanoma
[9] = system: A498 renal
[10] = system: UACC-62 melanoma

Structure (SMILES) | TGI [1] | TGI [2] | TGI [3] | TGI [4] | TGI [5] | TGI [6] | TGI [7] | TGI [8] | TGI [9] | TGI [10] | GI50 [1] | GI50 [2] | GI50 [3] | GI50 [4] | GI50 [5] | GI50 [6] | GI50 [7] | GI50 [8] | GI50 [9] | GI50 [10]
CN(C)CCSS(=O)(=O)O | > 100 µM | > 100 µM | > 100 µM | > 100 µM | > 100 µM | > 100 µM | > 100 µM | > 100 µM | > 100 µM | > 100 µM | – | – | – | – | – | – | – | – | – | –
O=C1CC(c2[nH]nc3ccccc23)C(=O)N1c1ccccc1 (stereo not given) | > 100 µM | > 100 µM | > 100 µM | > 100 µM | > 100 µM | > 100 µM | > 100 µM | > 100 µM | > 100 µM | > 100 µM | – | – | – | – | – | – | – | – | – | –
O=C1/C(=C/c2ccccc2)CN(C(=O)CCN2CCCC2)C/C1=C\c1ccccc1 | 3.48 µM | 3.78 µM | 6.17 µM | 3.62 µM | 3.77 µM | 3.24 µM | 6.69 µM | 1.85 µM | 13 µM | 3.45 µM | – | – | – | – | – | – | – | – | – | –
Cc1ccc(N=Nc2c(O)ccc3ccccc23)cc1 | > 100 µM | > 100 µM | > 100 µM | > 100 µM | > 100 µM | > 100 µM | > 100 µM | > 100 µM | > 100 µM | > 100 µM | – | – | – | – | – | – | – | – | – | –
Cn1cc(C2=C(c3cn(C)c4ccc(Cl)cc34)C(=O)NC2=O)c2ccccc21 | 8.28 µM | > 25 µM | > 21.6 µM | > 24 µM | 9.03 µM | 2.85 µM | > 25 µM | 11.9 µM | 7.09 µM | 8.36 µM | 3.47 µM | 6.69 µM | 5.16 µM | 2.63 µM | 3.56 µM | 0.645 µM | 8.33 µM | 2.74 µM | 1.75 µM | 2.42 µM
COc1ccc(-c2nc(-c3nc4ccc(F)cc4[nH]3)c3ccccn23)cc1 | 6.71 µM | 30.4 µM | 23.4 µM | > 100 µM | 22.9 µM | > 100 µM | 58.6 µM | > 100 µM | 31.8 µM | 36.1 µM | 2.2 µM | 4.34 µM | 3.76 µM | 12.9 µM | 4.84 µM | 8.05 µM | 11.2 µM | 10.8 µM | 3.83 µM | 5.41 µM
OCc1ccc(-c2cscc2-c2ccc(CO)o2)o1 | > 100 µM | > 100 µM | > 100 µM | > 100 µM | > 100 µM | > 100 µM | > 100 µM | > 100 µM | 0.0381 µM | 2.2 µM | 16.2 µM | > 100 µM | 29.9 µM | > 100 µM | > 87.5 µM | > 100 µM | > 100 µM | > 100 µM | 0.0156 µM | 0.435 µM
CCCCCCCCNCCC[C@@H](C)[C@H]1CC[C@H]2[C@@H]3[C@H](OCCCN)C[C@H]4C[C@H](OCCCN)CC[C@]4(C)[C@H]3C[C@H](OCCCN)[C@]12C | 6.54 µM | 7.11 µM | 4.07 µM | 4.87 µM | 4.35 µM | 2.5 µM | 5.24 µM | 3.54 µM | 54.5 µM | 3.84 µM | 2.24 µM | 0.983 µM | 1.82 µM | 1.64 µM | 1.43 µM | 0.768 µM | 1.69 µM | 1.57 µM | 21.3 µM | 1 µM
Cc1nc2c(n1C)C(=O)c1ccccc1C2=O | 85.2 µM | > 100 µM | > 100 µM | > 100 µM | > 100 µM | > 100 µM | > 100 µM | > 100 µM | > 100 µM | > 100 µM | 22 µM | > 100 µM | > 100 µM | 43 µM | > 100 µM | 48.1 µM | 91.3 µM | 38.5 µM | > 100 µM | 56 µM
